In patent US9809621B2, “Stable peptide-based PACE4 inhibitors” (SOCPRA SCIENCES SANTÉ ET HUMAINES S.E.C., priority 2011, dated 2017):
Several values for one entry are separate records, joined by “and”; a condition that tells them apart may be missing. Equal values may be shown once. Read-outs that look alike come from different tables or passages of the source. Numbered stars: 1 amine (or outer) side, 2 acyl side, 3 side chain; on linkers, the order of the positions; unused ones are H or OH. Square brackets hold non-standard residues; d marks the D form. Peptide text beside a SMILES is read from it. * marks the point of attachment. X3 = CC(C)C[C@H](N[*:1])c1cn([C@@H](CC(C)C)C(=O)[*:2])nn1; X5 = CC(C)C/C(=C\C[C@H](CC(C)C)N[*:1])C(=O)[*:2]; NH(4-amidinobenzyl) = N=C(N)c1ccc(CN*)cc1; PEG8 = NCCOCCOCCOCCOCCOCCOCCOCCOCCC(=O)O; X4 = N=C(N)NCCCN(CC(N)=O)N*; Nle = CCCC[C@H](N)C(=O)O

Assays:
DU145 cells = details: MTT, FIG. 1C, FIG. 7
[1] = Stability following incubation with DU145 cells; assay type: in vitro ADME, human; details: human, DU145 cells, Table 1, read-out: Stability (% remaining after 48 h)
Method: (§1) Multiple multi-Leu variants described in Table 1 were tested for their stability following incubation with DU145 cells, wherein their cellular stability and plasmatic half-life was measured.
Consequently, the multi-Leu peptide was further modified by the addition of amino acid analogues and/or with pseudo peptide bounds which increase the protection of the modified peptides from peptidase and protease degradation. Gains in stability were also measured in vitro in tumoral prostatic human cells (DU145). Increase in stability of the variants was also measured in vivo (FIG. 4).

[2] = Plasmatic half-life / degradation by plasmatic protease; assay type: in vitro ADME; details: plasma, Table 1
Method: as §1
Stabilisation strategy for multi-Leu variants was also assessed in presence of plasmatic protease. 8 variants protected at their N-terminal leucines were tested in order to establish their level of degradation since it is expected that N-terminal degradation will occur in absence of any modifications other than acetylation. Variants tested with azaβ3-leucine at each individual position and “click” bonds between the different leucines of the N-terminal part of the variants were protected against degradation (see FIG. 3 for modifications).

PACE4 = molecular target: T1, PACE4 (Homo sapiens, UniProt P29122); assay: Inhibition constant (Ki) for PACE4; assay type: biochemical
T1 sequence (P29122 150-969): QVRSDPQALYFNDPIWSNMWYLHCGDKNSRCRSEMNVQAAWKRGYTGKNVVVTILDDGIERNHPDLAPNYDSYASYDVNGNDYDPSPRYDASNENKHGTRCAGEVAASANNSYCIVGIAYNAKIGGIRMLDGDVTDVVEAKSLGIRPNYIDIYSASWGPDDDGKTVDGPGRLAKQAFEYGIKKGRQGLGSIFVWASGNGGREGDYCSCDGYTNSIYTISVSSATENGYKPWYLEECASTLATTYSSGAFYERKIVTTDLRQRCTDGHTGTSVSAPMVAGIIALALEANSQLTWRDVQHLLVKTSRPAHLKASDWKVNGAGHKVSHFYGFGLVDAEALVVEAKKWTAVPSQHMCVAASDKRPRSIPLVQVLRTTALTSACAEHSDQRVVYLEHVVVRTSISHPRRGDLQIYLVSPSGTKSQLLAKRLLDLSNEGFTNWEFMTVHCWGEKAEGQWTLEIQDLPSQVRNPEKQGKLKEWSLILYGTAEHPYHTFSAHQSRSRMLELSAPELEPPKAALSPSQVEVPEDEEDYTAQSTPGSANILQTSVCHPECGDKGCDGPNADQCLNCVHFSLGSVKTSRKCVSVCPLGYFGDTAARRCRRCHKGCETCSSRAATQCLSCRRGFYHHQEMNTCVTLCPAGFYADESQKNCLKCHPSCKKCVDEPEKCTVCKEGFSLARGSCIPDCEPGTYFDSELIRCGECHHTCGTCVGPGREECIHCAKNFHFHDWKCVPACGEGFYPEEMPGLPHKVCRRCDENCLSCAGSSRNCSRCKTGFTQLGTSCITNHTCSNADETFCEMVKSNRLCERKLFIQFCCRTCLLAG

[3] = Table 1, read-out: Ki for PACE4

Compound	Anti-proliferative activity in DU145 cells (in words) (DU145 cells)	remaining at 48 h [1] [%]	half-life [2] [h]	Ki (PACE4; [3])	Ki (PACE4; Ki for PACE4, Table 1) [nM]
CC(=O)N[C@@H](CC(C)C)C(=O)N[C@@H](CC(C)C)C(=O)N[C@@H](CC(C)C)C(=O)N[C@@H](CC(C)C)C(=O)N[C@@H](CCCNC(=N)N)C(=O)N[C@H](C(=O)N[C@@H](CCCCN)C(=O)NCc1ccc(C(=N)N)cc1)C(C)C [ML-[AMBA]^P1, Ac-LLLLRVK-[AMBA]] (Ac-LLLLRVK-{NH(4-amidinobenzyl)})	IC50 lower than the IC50 of the multi-Leu control	–	–	–	–
CC(=O)NN(CC(=O)N[C@@H](CC(C)C)C(=O)N[C@@H](CC(C)C)C(=O)N[C@@H](CC(C)C)C(=O)N[C@@H](CCCNC(=N)N)C(=O)N[C@H](C(=O)N[C@@H](CCCCN)C(=O)N[C@@H](CCCNC(=N)N)C(N)=O)C(C)C)CC(C)C [ML[Azaβ3L]^P8]	–	83	2.5 ± 0.1	–	–
CC(=O)N[C@@H](CC(C)C)C(=O)N[C@@H](CC(C)C)C(=O)N[C@@H](CC(C)C)C(=O)N[C@@H](CC(C)C)C(=O)N[C@@H](CCCNC(=N)N)C(=O)N[C@H](C(=O)N[C@@H](CCCCN)C(=O)NN(CCCNC(=N)N)CC(N)=O)C(C)C [ML[Azaβ3R]^P1, Ac-LLLLRVK[Azaβ3R]-NH2] (Ac-LLLLRVK-X4)	–	–	5.39 ± 0.08	460 nM	–
CCCC[C@H](NC(C)=O)C(=O)N[C@@H](CCCC)C(=O)N[C@@H](CC(C)C)C(=O)N[C@@H](CCCC)C(=O)N[C@@H](CCCN=C(N)N)C(=O)N[C@H](C(=O)N[C@@H](CCCCN)C(=O)N[C@@H](CCCN=C(N)N)C(N)=O)C(C)C [ML[Nle]^P5-6-8, Ac-[Nle][Nle]L[Nle]RVKR-NH2]	–	41	–	–	85
CCCC[C@H](NC(=O)[C@H](CC(C)C)NC(=O)[C@H](CC(C)C)NC(=O)[C@H](CC(C)C)NC(C)=O)C(=O)N[C@@H](CCCN=C(N)N)C(=O)N[C@H](C(=O)N[C@@H](CCCCN)C(=O)N[C@@H](CCCN=C(N)N)C(N)=O)C(C)C [ML[Nle]^P5] (Ac-LLL[Nle]RVKR-NH2)	–	–	–	17 nM and 37 nM	–
CCCC[C@H](NC(C)=O)C(=O)N[C@@H](CCCC)C(=O)N[C@@H](CCCC)C(=O)N[C@@H](CCCC)C(=O)N[C@@H](CCCNC(=N)N)C(=O)N[C@H](C(=O)N[C@@H](CCCCN)C(N)=O)C(C)C [ML[Nleu]^P5-6-7-8, Ac-[Nle][Nle][Nle][Nle]RVK-NH2] (Ac-[Nle][Nle][Nle][Nle]RVK-NH2)	–	–	–	–	344
CC(=O)N[C@H](C/C=C(\CC(C)C)C(=O)N[C@@H](CC(C)C)C(=O)N[C@@H](CC(C)C)C(=O)N[C@@H](CCCNC(=N)N)C(=O)N[C@H](C(=O)N[C@@H](CCCCN)C(=O)N[C@@H](CCCNC(=N)N)C(N)=O)C(C)C)CC(C)C [ML[c-ene]^P8-P7, Ac-L═LLLRVKR-NH2] (Ac-[X5]LLRVKR-NH2)	–	–	~7.4	–	–
CC(=O)N[C@@H](CC(C)C)C(=O)N[C@@H](CC(C)C)c1cn([C@@H](CC(C)C)C(=O)N[C@@H](CC(C)C)C(=O)N[C@@H](CCCNC(=N)N)C(=O)N[C@H](C(=O)N[C@@H](CCCCN)C(=O)N[C@@H](CCCNC(=N)N)C(N)=O)C(C)C)nn1 [ML[click]^P7-P6, Ac-LL[click]LLRVKR-NH2] (Ac-L[X3]LRVKR-NH2)	–	–	1 ± 0.2	600 nM	–
CC(=O)N[C@@H](CC(C)C)c1cn([C@@H](CC(C)C)C(=O)N[C@@H](CC(C)C)C(=O)N[C@@H](CC(C)C)C(=O)N[C@@H](CCCNC(=N)N)C(=O)N[C@H](C(=O)N[C@@H](CCCCN)C(=O)N[C@@H](CCCNC(=N)N)C(N)=O)C(C)C)nn1 [ML[click]^P8-P7, Ac-L[click]LLLRVKR-NH2] (Ac-[X3]LLRVKR-NH2)	–	52	4 ± 0.5	37 nM	–
CC(=O)NCCOCCOCCOCCOCCOCCOCCOCCOCCC(=O)N[C@@H](CC(C)C)C(=O)N[C@@H](CC(C)C)C(=O)N[C@@H](CC(C)C)C(=O)N[C@@H](CC(C)C)C(=O)N[C@@H](CCCNC(=N)N)C(=O)N[C@H](C(=O)N[C@@H](CCCCN)C(=O)N[C@@H](CCCNC(=N)N)C(N)=O)C(C)C [[H2N-PEG8]-ML, Ac-[HN-PEG8]-LLLLRVKR-NH2] (Ac-[PEG8]LLLLRVKR-NH2)	–	64	1.3 ± 0.2	–	–
Ac-LLLSRVKR-NH2 [ML[Ser]-P5, Ac-LLLSRVKR-NH2]	–	88	2.32 ± 0.04	–	11
